Measurements as given in US11071317B2, “Sweetness enhancement” (Givaudan, S.A., priority 2015, dated 2021).
Several values for one entry are separate records, joined by “and”; a condition that tells them apart may be missing. Equal entries are not always repeated.

Experiments:
Format in all cases: in vivo
[1] = tested on: sweet sensitive panelists; experiment: Ranking of 5% sucrose+4% cellobiose against sucrose standards (6%, 7% and 8%) in water for overall sweetness intensity, r-index analysis; conditions: 4% cellobiose in combination with 5% sucrose
Description: 20 sweet sensitive panelists rank ranked 5% sucrose+4% cellobiose and sucrose standards (6%, 7% and 8%) in water for overall sweetness intensity over 2 replications for a total of 40 observations. […] The expected sucrose equivalence (SE) of 4% cellobiose on top of 5% sucrose would be 6.25% (1.25%+5%) but the perceived SE was 7%, showing true sweetness enhancement.

expert tasters [2] = experiment: Expert taster comparison, carbonated lemon lime beverage (sodium benzoate, 90 ppm Sucralose, citric acid) with 4% cellobiose vs base; conditions: carbonated water, 2000 ppm sodium benzoate, 500 ppm citric acid, 850 ppm lemon lime flavor
Procedure: Samples were evaluated by a panel of 7 expert tasters. Tasters were asked to compare the base (carbonated water, 2000 ppm sodium benzoate, 90 ppm Sucralose, 500 ppm citric acid, 850 ppm lemon lime flavor) with the model beverage (water, 2000 ppm sodium benzoate, 90 ppm Sucralose, 500 ppm citric acid, 850 ppm lemon lime flavor, 4% cellobiose) focusing on the overall quality of sweetness, particularly on the enhancement of the upfront sweetness, overall sweetness intensity.

expert tasters [3] = experiment: Expert taster comparison, model beverage: water, 200 ppm sucralose, 2% cellobiose vs base
Procedure: Samples were evaluated by a panel of 7 expert tasters. Tasters were asked to compare the base (200 ppm of sucralose) with the model beverage (water, 200 ppm of sucralose, 2% cellobiose) focusing on the overall quality of sweetness, particularly on the enhancement of the upfront sweetness, overall sweetness intensity.

expert tasters [4] = experiment: Expert taster comparison, lemon lime beverage (water, sodium benzoate, 180 ppm Reb-A, citric acid) with 4% cellobiose vs base, panel of 8 (Example 12); conditions: 2000 ppm sodium benzoate, 500 ppm citric acid, 850 ppm lemon lime flavor
Procedure: Samples were evaluated by a panel of 8 expert tasters. Tasters were asked to compare the base (water, 2000 ppm sodium benzoate, 180 ppm Reb-A, 500 ppm citric acid, 850 ppm lemon lime flavor) with the model beverage (water, 2000 ppm sodium Benzoate, 180 ppm Reb-A, 500 ppm citric acid, 850 ppm lemon lime flavor, 4% cellobiose) focusing on the overall quality of sweetness, particularly on the enhancement of the upfront sweetness, overall sweetness intensity.

expert tasters [5] = experiment: Expert taster comparison, lemon lime beverage (water, sodium benzoate, 180 ppm Reb-A, citric acid) with 4% cellobiose vs base, panel of 7 (Example 11); conditions: 2000 ppm sodium benzoate, 500 ppm citric acid, 850 ppm lemon lime flavor
Procedure: Samples were evaluated by a panel of 7 expert tasters. Tasters were asked to compare the base (water, 2000 ppm sodium benzoate, 180 ppm Reb-A, 500 ppm citric acid, 850 ppm lemon lime flavor) with the model beverage (water, 2000 ppm sodium Benzoate, 180 ppm Reb-A, 500 ppm citric acid, 850 ppm lemon lime flavor, 4% cellobiose) focusing on the overall quality of sweetness, particularly on the enhancement of the upfront sweetness, overall sweetness intensity.

expert tasters [6] = experiment: Expert taster comparison, model beverage: water, 5% sucrose, 0.1% cellobiose vs base
Procedure: Samples were evaluated by a panel of 9 expert tasters. Tasters were asked to compare the base (water with 5% of sucrose) with the model beverage (water, 5% of sucrose, and 0.1% cellobiose) focusing on the overall quality of sweetness, particularly on the enhancement of the upfront sweetness, overall sweetness intensity.

expert tasters [7] = experiment: Expert taster comparison, lemon lime beverage (water, sodium benzoate, 90 ppm sucralose, citric acid) with 4% cellobiose vs base; conditions: 2000 ppm sodium benzoate, 500 ppm citric acid, 850 ppm lemon lime flavor
Procedure: Samples were evaluated by a panel of 6 expert tasters. Tasters were asked to compare the base (water, 2000 ppm sodium benzoate, 90 ppm sucralose, 500 ppm citric acid, 850 ppm lemon lime flavor) with the model beverage (water, 2000 ppm sodium benzoate, 90 ppm sucralose, 500 ppm citric acid, 850 ppm lemon lime flavor, 4% cellobiose) focusing on the overall quality of sweetness, particularly on the enhancement of the upfront sweetness, overall sweetness intensity.

expert tasters [8] = experiment: Expert taster comparison, model beverage: water, 5% sucrose, 2% cellobiose vs base
Procedure: Samples were evaluated by a panel of 13 expert tasters. Tasters were asked to compare the base (water with 5% of sucrose) with the model beverage (water, 5% of sucrose, and 2% cellobiose) focusing on the overall quality of sweetness, particularly on the enhancement of the upfront sweetness, overall sweetness intensity.

[9] = tested on: sweet sensitive panelists; experiment: Ranking of 4% cellobiose against sucrose standards (1% and 1.5%) in water for overall sweetness intensity, r-index analysis
Description: 20 sweet sensitive panelists ranked 4% cellobiose and sucrose standards (1% and 1.5%) for overall sweetness intensity over 2 replications for a total of 40 observations.

expert tasters [10] = experiment: Expert taster comparison, model beverage: water, 7% sucrose, 2% cellobiose vs base
Procedure: Samples were evaluated by a panel of 6 expert tasters. Tasters were asked to compare the base (water with 7% of sucrose) with the model beverage (water, 7% of sucrose, and 2% cellobiose) focusing on the overall quality of sweetness, particularly on the enhancement of the upfront sweetness, overall sweetness intensity.

expert tasters [11] = experiment: Expert taster comparison, model beverage: water, 95 ppm sucralose, 2% cellobiose vs base
Procedure: Samples were evaluated by a panel of 8 expert tasters. Tasters were asked to compare the base (95 ppm of sucralose) with the model beverage (water, 95 ppm of sucralose, 2% cellobiose) focusing on the overall quality of sweetness, particularly on the enhancement of the upfront sweetness, overall sweetness intensity.

expert tasters [12] = experiment: Expert taster comparison, plain zero-fat yoghurt with 180 ppm RebA and 4% cellobiose vs base; conditions: 180 ppm RebA
Procedure: Yoghurt RebA 180 ppm+4% cellobiose
In a plain zero-fat yoghurt, sweetened with rebaudioside A (180 ppm), cellobiose was tested at 4% for sweetness enhancement. Samples were evaluated by a panel of 6 expert tasters. Tasters were asked to compare the base (plain yoghurt+180 ppm RebA) with the model yoghurt (plain yoghurt, 180 ppm RebA 4% cellobiose) focusing on the overall quality of sweetness.

trained panelists = experiment: Descriptor scoring (overall, upfront, delayed, lingering sweet; 100-point scale) of 80 ppm Reb-A in water with 4% cellobiose
Procedure: The test was carried out by a panel of 14 trained panelists. The panelists scored 4 descriptors (overall sweet, upfront sweet, delayed sweet and lingering sweet) on a 100-point scale over 4 replications for a total of […].

expert tasters [13] = experiment: Expert taster comparison, plain zero-fat yoghurt with 90 ppm sucralose and 4% cellobiose vs base; conditions: 90 ppm sucralose
Procedure: In a plain zero-fat yoghurt, sweetened with sucralose (90 ppm), cellobiose was tested at 4% for sweetness enhancement. Samples were evaluated by a panel of 6 expert tasters. Tasters were asked to compare the base (plain yoghurt+90 ppm sucralose) with the model yoghurt (plain yoghurt, 90 ppm sucralose, 4% cellobiose) focusing on the overall quality of sweetness.

[14] = Sweetness and mouthfeel equivalence of sucrose + cellobiose solutions to sucrose solutions (general statement)
[15] = 4% cellobiose added to 80 ppm Reb-A in water, vs unaltered 80 ppm Reb-A base

Q: Which sweetness enhancement [1] does the source give for `OC[C@H]1O[C@@H](O[C@H]2[C@H](O)[C@@H](O)C(O)O[C@@H]2CO)[C@H](O)[C@@H](O)[C@@H]1O` (mixture of isomers) [cellobiose] here?
A: Its sweetness enhancement is “sweetness enhancement beyond an additive effect”.

Q: What about the aroma profile (expert tasters [2]) of the same compound?
A: Its aroma profile is “rounded aroma profile”.

Q: What about the mouthfeel (expert tasters [2]) of the same compound?
A: The mouthfeel was “improved mouthfeel”.

Q: And the sweetness enhancement (expert tasters [2])?
A: The sweetness enhancement was “significant sweetness enhancement”.

Q: And the upfront sweetness enhancement (expert tasters [2])?
A: Its upfront sweetness enhancement is “upfront sweetness enhancement”.

Q: What about the mouthfeel (expert tasters [3]) of the same compound?
A: Its mouthfeel is “better mouthfeel”.

Q: And the offnotes (expert tasters [3])?
A: Its offnotes is “decreased offnotes”.

Q: And the profile (expert tasters [3])?
A: The profile was “rounded profile”.

Q: And the sweetness enhancement (expert tasters [3])?
A: The sweetness enhancement was “significant sweetness enhancement”.

Q: And the upfront sweetness enhancement (expert tasters [3])?
A: The upfront sweetness enhancement was “upfront sweetness enhancement”.

Q: And the aroma profile (expert tasters [4])?
A: The aroma profile was “rounded aroma profile”.

Q: What about the mouthfeel (expert tasters [4]) of the same compound?
A: The mouthfeel was “improved mouthfeel”.

Q: And the sweetness enhancement (expert tasters [4])?
A: Its sweetness enhancement is “significant sweetness enhancement”.

Q: What about the upfront sweetness enhancement (expert tasters [4]) of the same compound?
A: Its upfront sweetness enhancement is “upfront sweetness enhancement”.

Q: And the aroma profile (expert tasters [5])?
A: Its aroma profile is “rounded aroma profile”.

Q: What about the mouthfeel (expert tasters [5]) of the same compound?
A: Its mouthfeel is “improved mouthfeel”.

Q: And the sweetness enhancement (expert tasters [5])?
A: Its sweetness enhancement is “significant sweetness enhancement”.

Q: And the upfront sweetness enhancement (expert tasters [5])?
A: Its upfront sweetness enhancement is “upfront sweetness enhancement”.

Q: What about the profile (expert tasters [6]) of the same compound?
A: Its profile is “rounded profile”.

Q: And the sweetness enhancement (expert tasters [6])?
A: Its sweetness enhancement is “significant sweetness enhancement”.

Q: What about the aroma profile (expert tasters [7]) of the same compound?
A: Its aroma profile is “rounded aroma profile”.

Q: What about the sweetness enhancement (expert tasters [7]) of the same compound?
A: Its sweetness enhancement is “significant sweetness enhancement”.

Q: What about the upfront sweetness enhancement (expert tasters [7]) of the same compound?
A: Its upfront sweetness enhancement is “upfront sweetness enhancement”.

Q: And the mouthfeel (expert tasters [8])?
A: The mouthfeel was “better mouthfeel”.

Q: What about the profile (expert tasters [8]) of the same compound?
A: The profile was “rounded profile”.

Q: What about the sweetness enhancement (expert tasters [8]) of the same compound?
A: Its sweetness enhancement is “significant sweetness enhancement”.

Q: And the upfront sweetness enhancement (expert tasters [8])?
A: The upfront sweetness enhancement was “upfront sweetness enhancement”.

Q: What about the “sweetness rated as sweet as sucrose” value ([9]; 4% cellobiose) of the same compound?
A: Its value is 1.25 % sucrose.

Q: And the “inherent sweetness on its own” value ([9]; 4% cellobiose in water)?
A: Its value is “not inherently sweet”.

Q: And the “overall sweetness intensity relative to sucrose standards” value ([9]; 4% cellobiose in water, r-index analysis, 95% confidence level, p-value<0.05)?
A: Its value is < 1.5 % sucrose and > 1.0 % sucrose.

Q: And the profile (expert tasters [10])?
A: The profile was “rounded profile”.

Q: What about the sweetness enhancement (expert tasters [10]) of the same compound?
A: Its sweetness enhancement is “significant sweetness enhancement”.

Q: And the upfront sweetness enhancement (expert tasters [10])?
A: Its upfront sweetness enhancement is “upfront sweetness enhancement”.

Q: What about the mouthfeel (expert tasters [11]) of the same compound?
A: The mouthfeel was “better mouthfeel”.

Q: And the offnotes (expert tasters [11])?
A: Its offnotes is “decreased offnotes”.

Q: And the profile (expert tasters [11])?
A: The profile was “rounded profile”.

Q: What about the sweetness enhancement (expert tasters [11]) of the same compound?
A: Its sweetness enhancement is “significant sweetness enhancement”.

Q: What about the upfront sweetness enhancement (expert tasters [11]) of the same compound?
A: The upfront sweetness enhancement was “upfront sweetness enhancement”.

Q: What about the “overall balance and quality of sweetness” value (expert tasters [12]) of the same compound?
A: The value was “significantly better overall balance and quality of sweetness”.

Q: What about the sweetness (expert tasters [12]) of the same compound?
A: The sweetness was “much sweeter”.

Q: What about the delayed sweetness (trained panelists; [15]) of the same compound?
A: The delayed sweetness was “significantly decreased”.

Q: What about the lingering sweetness (trained panelists; [15]) of the same compound?
A: The lingering sweetness was “significantly decreased”.

Q: What about the overall sweetness (trained panelists; [15]) of the same compound?
A: Its overall sweetness is “significantly increased”.

Q: And the upfront sweetness (trained panelists; [15])?
A: The upfront sweetness was “significantly increased”.

Q: What about the upfront sweetness (trained panelists; 80 ppm Reb-A and 4% cellobiose, vs isosweet 150 ppm Reb-A sample) of the same compound?
A: The upfront sweetness was “significantly increased”.

Q: What about the “Reb-A aqueous solution of the same sweetness” value (trained panelists; aqueous solution of 80 ppm Reb-A and 4% cellobiose) of the same compound?
A: Its value is 150 ppm Reb-A.

Q: And the “balance and quality of sweetness” value (expert tasters [13])?
A: Its value is “significantly improved balance and quality of sweetness”.

Q: And the sweetness (expert tasters [13])?
A: Its sweetness is “much sweeter”.

Q: What about the “sucrose solution of similar sweetness and mouthfeel characteristics” value ([14]; solution of 2% sucrose and 4% cellobiose) of the same compound?
A: The value was about 4 % sucrose.

Q: What about the “sucrose solution of very similar taste” value ([14]; solution of 5% sucrose+4% cellobiose) of the same compound?
A: Its value is about 7 % sucrose.

Q: And the “sucrose solution of very similar taste” value ([14]; solution of 7% sucrose+4% cellobiose)?
A: Its value is about 9 % sucrose.
